Source: PMC12196278, “Targeting Neuronal Nitric Oxide Synthase (nNOS) as a Novel Approach to Enhancing the Anti-Melanoma Activity of Immune Checkpoint Inhibitors” (Pharmaceutics, 2025)
Like-named read-outs stand apart in the source and are kept apart here.

How the values were obtained:
Human nNOS = Human nNOS (Homo sapiens, UniProt P29475); experiment: nNOS inhibitory assay, human nNOS; assay type: biochemical; conditions: calculated from IC50 with Cheng-Prusoff equation; read-out: Ki Human nNOS (hn)
Procedure: The Ki values were calculated from the IC50 values of the corresponding dose-response curves using the Cheng-Prusoff equation. […] Selectivity values were determined by calculating the ratios of the respective Ki values.

Human eNOS = Human eNOS (Homo sapiens, UniProt P29474); experiment: NOS selectivity assay, human eNOS; assay type: biochemical; conditions: calculated from IC50 with Cheng-Prusoff equation; read-out: Ki Human eNOS (he)
Procedure: The Ki values were calculated from the IC50 values of the corresponding dose-response curves using the Cheng-Prusoff equation. […] All standard errors were less than 5%. Selectivity values were determined by calculating the ratios of the respective Ki values.

A375 cells = experiment: NanoString nCounter PanCancer IO 360 gene expression profiling; assay type: cell-based, human
Procedure: After treatment, the total RNA samples were collected from A375 cells using an RNeasy Mini Kit (#74104; Qiagen, Hilden, Germany) and stored at −80 °C prior to analysis. The nCounter PanCancer IO 360 Panel and nCounter Pro Analysis System (NanoString, Seattle, WA, USA) were used to quantify gene expression changes in 770 genes implicated in immune-oncological processes. The transcriptomic data were analyzed using ROSALIND online platform (https://www.rosalind.bio/, San Diego, CA, USA).
(b) Comparing IFN-γ treatment to control. (c) Comparing the combination treatment to IFN-γ alone. […] All the treatments were independently repeated three times. […] The analysis was based on the expression changes of genes involved in each specific pathway, with a higher score signifying a greater probability of pathway involvement.

peripheral T cells = experiment: Immune profile of peripheral T cells in allograft melanoma mice (flow cytometry); assay type: in vivo, mouse; conditions: HH044 10 mg/kg intraperitoneal daily, peripheral blood, vs control group
Procedure: The in vivo studies were carried out in compliance with the ARRIVE guidelines. All animal procedures were approved by the Institutional Animal Care and Use Committee (IACUC) at Chapman University and conducted in compliance with the policies of Chapman University and federal, state, and local animal welfare authorities. DBA/2 mice were purchased from Charles River (Wilmington, MA, USA) and housed in the Chapman University vivarium. Male mice were selected for the in vivo studies due to the markedly slow growth rate of CS91 cells in female mice observed in previous studies. To induce melanoma tumor growth, the mice were injected subcutaneously with 1 × 10^5 CS91 murine melanoma cells in a 100 μL solution of 50% Matrigel basement membrane matrix (CB354248, Corning, Corning, NY, USA). […] At the end of the study, peripheral blood was collected from the mice for T cell analysis.
Cells were blocked in FACS block buffer (0.5% BSA, 2% FBS in 1× PBS) and incubated in a surface marker antibody dilution in FACS wash buffer (0.5% BSA, 0.05% NaN3 in 1× PBS). Following fixation with True-Nuclear Fix Buffer (424401; BioLegend, San Diego, CA, USA), the cells were incubated with an intracellular antibody diluted in True-Nuclear Perm Buffer (424401; BioLegend, San Diego, CA, USA) overnight at 4 °C. The stained cells were then washed with Perm Buffer and analyzed using a BD Fortessa X20 flow cytometer (BD Biosciences, San Jose, CA, USA). Compensation beads (anti-mouse 552843; anti-rat 552844; BD Biosciences, Franklin Lakes, NJ, USA) stained with single antibodies were used to calculate the compensation, and data were analyzed and gated using FlowJo v. 10.8.1 (FlowJo LLC, Ashland, OR, USA).
Peripheral blood samples were collected from the DBA/2 mice at the end of the study. T cells were isolated from the blood using Ficoll separation and stained as described above. The Ficoll-Paque solution was obtained from Cytiva (17144002; Marlborough, MA, USA). The T cell marker antibodies used were Brilliant Violet 605 anti-mouse CD3, PE/Cyanine7 anti-mouse CD4, Brilliant Violet 785 anti-mouse CD8a, APC/Cyanine7 anti-mouse CD279 (PD-1), Alexa Fluor 647 anti-GATA3, Alexa Fluor 488 anti-mouse FOXP3, Brilliant Violet 421 anti-T-bet (100237; 100421; 100749; 135223; 653809; 126406; 644815; BioLegend, San Diego, CA, USA), and PE-CF594 mouse anti-mouse RORγt (562684; BD Biosciences, Franklin Lakes, NJ, USA).

[1] = tested on: CS91 murine melanoma allograft; experiment: In vivo anti-melanoma efficacy, immunocompetent allograft model, tumor volume; parameters: species or system mouse; conditions: day 18, DBA/2 mice, nNOS inhibitor 10 mg/kg/day intraperitoneal, anti-PD-1 100 µg twice per week for 2 weeks
Procedure: (§1) As described above, male DBA/2 mice were purchased from Charles River and housed in the Chapman University vivarium under pathogen-free conditions. Each mouse received a subcutaneous injection in the flank with 0.25 × 10^6 CS91 cells suspended in 50% Matrigel. […] The body weight and tumor volume were measured twice weekly for three weeks. Tumors were measured using calipers, and the volume (mm^3) was calculated with the following formula: volume = [length × (width^2)]/2. The mice were sacrificed once their tumors reached 2000 mm^3, and dates were recorded for survival analysis.

[2] = tested on: CS91 murine melanoma allograft; experiment: Survival analysis in the murine melanoma model (endpoint tumor volume 2000 mm^3); assay type: in vivo, mouse; conditions: DBA/2 mice, CS91, result in words
Procedure: as §1
Statistical analyses were carried out using GraphPad Prism 9. Comparisons of multiple groups were performed using mixed-effects analysis of variance (ANOVA) followed by Tukey’s post hoc test for parametric data. Statistical comparisons of two groups were performed using an unpaired two-tailed t-test for parametric data. Statistical comparison for a simple 2 × 2 contingency table was performed using a Chi-Square calculator on Social Science Statistics. Kaplan Meier methods were utilized for estimating the survival probability over time, with a tumor volume of 2000 mm^3 marking the endpoint for the survival study. A p value less than 0.05 was considered statistically significant for all statistical analyses. Data are graphically represented as bar graphs with the mean ± standard error of the mean (SEM).

[3] = Body weight, cecum weight and toxicity signs in treated mice; assay type: in vivo, mouse
Procedure: as §1
Upon reaching the study endpoint, the mice were euthanized, and organs were collected and weighed.

CS91 cells = experiment: Ex vivo sensitivity of murine melanoma cells after prolonged treatment (MTT); assay type: cell-based, mouse
Procedure: The aseptically collected tumor samples were mechanically dissociated in 1× PBS and passed through a 40 µm cell strainer. Single cell suspensions were centrifuged and resuspended in full growth media supplemented with 100 µg/mL of primocin. The cells were then plated and allowed to adhere for 24 h. Afterward, the cultures were washed twice with 1× PBS to remove non-adherent cells and allowed to grow in full growth media.
GraphPad Prism 9 was used to determine the IC50 of each compound by plotting the percent cell viability against the log drug concentrations and fitted using a nonlinear fit of the normalized data.

melanoma cells = tested on: melanoma cells; parameters: method as in PMID 35105915; conditions: read-out: Cytotoxicity IC50; cited from earlier work

Human eNOS, sequence (P29474 whole entry): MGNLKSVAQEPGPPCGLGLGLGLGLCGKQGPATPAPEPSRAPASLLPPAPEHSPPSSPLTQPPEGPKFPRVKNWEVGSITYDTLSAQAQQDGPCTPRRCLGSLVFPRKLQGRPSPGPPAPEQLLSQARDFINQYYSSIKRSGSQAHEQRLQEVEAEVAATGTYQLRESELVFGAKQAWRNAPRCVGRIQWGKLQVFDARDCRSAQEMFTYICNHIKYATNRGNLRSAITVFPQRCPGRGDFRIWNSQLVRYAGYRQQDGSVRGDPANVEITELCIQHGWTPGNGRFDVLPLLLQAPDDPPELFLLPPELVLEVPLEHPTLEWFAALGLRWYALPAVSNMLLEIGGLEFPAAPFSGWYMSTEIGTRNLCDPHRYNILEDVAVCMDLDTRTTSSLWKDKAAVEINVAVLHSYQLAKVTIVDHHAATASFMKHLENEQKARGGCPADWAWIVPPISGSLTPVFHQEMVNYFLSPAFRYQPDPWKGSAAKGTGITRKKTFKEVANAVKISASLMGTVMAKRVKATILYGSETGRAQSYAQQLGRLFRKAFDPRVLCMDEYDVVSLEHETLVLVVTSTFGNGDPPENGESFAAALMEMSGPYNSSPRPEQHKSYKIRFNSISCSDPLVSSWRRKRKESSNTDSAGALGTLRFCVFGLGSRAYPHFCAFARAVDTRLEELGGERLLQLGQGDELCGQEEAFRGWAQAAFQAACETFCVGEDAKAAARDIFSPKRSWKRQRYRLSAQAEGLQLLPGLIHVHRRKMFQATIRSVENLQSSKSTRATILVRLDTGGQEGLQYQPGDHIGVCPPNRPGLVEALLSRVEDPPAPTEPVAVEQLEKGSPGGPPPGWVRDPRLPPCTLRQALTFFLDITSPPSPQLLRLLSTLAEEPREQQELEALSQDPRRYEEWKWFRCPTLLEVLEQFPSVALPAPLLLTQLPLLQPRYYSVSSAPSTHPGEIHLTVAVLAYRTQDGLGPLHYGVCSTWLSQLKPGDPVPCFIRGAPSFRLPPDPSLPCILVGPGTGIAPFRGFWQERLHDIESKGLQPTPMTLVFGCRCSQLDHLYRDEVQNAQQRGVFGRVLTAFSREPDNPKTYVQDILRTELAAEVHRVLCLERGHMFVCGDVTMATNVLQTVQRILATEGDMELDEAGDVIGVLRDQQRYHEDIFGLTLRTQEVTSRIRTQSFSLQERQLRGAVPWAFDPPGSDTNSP
Human nNOS, sequence (P29475 whole entry): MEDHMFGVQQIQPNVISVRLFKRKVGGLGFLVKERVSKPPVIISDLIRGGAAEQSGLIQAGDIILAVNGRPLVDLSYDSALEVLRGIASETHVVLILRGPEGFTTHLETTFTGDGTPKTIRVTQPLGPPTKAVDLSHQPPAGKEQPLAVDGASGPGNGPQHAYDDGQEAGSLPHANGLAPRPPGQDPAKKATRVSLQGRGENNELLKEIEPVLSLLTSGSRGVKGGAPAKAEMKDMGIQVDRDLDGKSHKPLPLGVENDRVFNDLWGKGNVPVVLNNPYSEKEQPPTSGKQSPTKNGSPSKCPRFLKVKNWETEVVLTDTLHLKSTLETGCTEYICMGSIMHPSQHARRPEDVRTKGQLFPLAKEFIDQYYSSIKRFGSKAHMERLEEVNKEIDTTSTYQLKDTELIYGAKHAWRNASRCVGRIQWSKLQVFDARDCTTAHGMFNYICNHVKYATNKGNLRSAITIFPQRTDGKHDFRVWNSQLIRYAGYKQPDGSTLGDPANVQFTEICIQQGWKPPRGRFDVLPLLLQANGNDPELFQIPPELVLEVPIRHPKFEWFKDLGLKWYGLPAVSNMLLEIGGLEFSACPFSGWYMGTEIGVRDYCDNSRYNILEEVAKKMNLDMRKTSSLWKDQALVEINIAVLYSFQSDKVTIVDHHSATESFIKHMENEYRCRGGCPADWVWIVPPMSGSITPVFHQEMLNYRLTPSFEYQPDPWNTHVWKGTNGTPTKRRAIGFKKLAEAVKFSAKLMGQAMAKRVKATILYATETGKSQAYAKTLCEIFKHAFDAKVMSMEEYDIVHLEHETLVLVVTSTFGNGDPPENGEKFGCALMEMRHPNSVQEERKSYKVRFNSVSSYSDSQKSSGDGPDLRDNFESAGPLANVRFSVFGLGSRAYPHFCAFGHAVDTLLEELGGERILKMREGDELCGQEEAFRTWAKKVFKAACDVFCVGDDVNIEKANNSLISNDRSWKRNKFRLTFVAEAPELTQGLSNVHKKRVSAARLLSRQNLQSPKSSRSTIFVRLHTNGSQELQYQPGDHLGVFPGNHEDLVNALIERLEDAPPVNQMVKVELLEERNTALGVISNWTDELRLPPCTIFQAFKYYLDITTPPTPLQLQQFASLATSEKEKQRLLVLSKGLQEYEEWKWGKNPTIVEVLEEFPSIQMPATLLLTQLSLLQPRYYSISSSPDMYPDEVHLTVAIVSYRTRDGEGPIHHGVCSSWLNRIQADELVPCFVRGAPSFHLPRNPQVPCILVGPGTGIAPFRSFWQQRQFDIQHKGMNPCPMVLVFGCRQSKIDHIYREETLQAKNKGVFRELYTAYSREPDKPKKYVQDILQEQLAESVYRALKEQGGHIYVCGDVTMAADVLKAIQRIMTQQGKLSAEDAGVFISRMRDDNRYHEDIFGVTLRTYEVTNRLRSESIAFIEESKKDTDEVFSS

For `N=C(Nc1ccc(CCNCc2cccc(NC(=N)c3cccs3)c2)cc1)c1cccs1` [HH044], the Ki (Human nNOS) was 0.02 µM, the Ki (Human eNOS) was 6.74 µM and the Notch2 expression (A375 cells; HH044 in the presence of IFN-γ) was “increased”. The AXIN1 expression (A375 cells; HH044 treatment, A375) was “increased”, the WNT5A expression (A375 cells; HH044 treatment, A375) was “downregulated” and the IL-1α expression (A375 cells; HH044 treatment, A375, p < 0.05) was 30.3 % of the control. The “expression of EDN1, PDGFB, and MMP9” value (A375 cells; HH044 treatment, A375, vs control) was “significantly reduced”, the “CD4+ T cell counts” value (peripheral T cells) was “significantly increased” and the “CD4+GATA3+, CD4+RORγt+, CD4+Tbet+, and CD4+RORγt+FOXP3+ T cell counts” value (peripheral T cells) was “decreased”. For the same molecule, the “CD8+FOXP3+, CD8+GATA3+, CD8+Tbet+, and CD8+RORγt+FOXP3+ T cells” value (peripheral T cells) was “significantly decreased”, the “frequency of CD8+PD-1+ T cells” value (peripheral T cells) was “markedly increased” and the “overall percentage of CD8+ T cells” value (peripheral T cells) was “significantly decreased”. For the same molecule, the “tumor growth / average tumor volume” value [1] was 45.7 % of the control, the “median survival / mouse survival compared with the control group” value [2] was “not found to have significantly different median survival values” and the cecum weights ([3]; HH044 intraperitoneal 10 mg/kg/day ≥21 days vs control, p < 0.0001) was “significantly increased”. For the same molecule, the cecum weight ([3]; HH044 oral gavage 10, 25 and 50 mg/kg per os daily, preliminary study) was “failed to observe any significant differences”, the “behavior and signs of toxicity during treatment” value ([3]; HH044 treatment ≥21 days) was “no behavioral changes or other observable signs of severe toxicity or distress” and the body weight ([3]; HH044 treatment, 21 days) was 88 % of the control. For the same molecule, the “body weight compared with the control” value ([3]; prolonged treatment, 21 days) was “significantly lower”, the IC50 (CS91 cells; mice treated with the same compound 10 mg/kg/day intraperitoneal, read-out: IC50 of CS91 cells isolated from tumors of nNOS inhibitor-treated mice) was 10.4 µM and the IC50 (CS91 cells; read-out: IC50 of in vitro cultured CS91 cells) was 12.7 µM. For the same molecule, the IC50 (melanoma cells) was 5.27 ± 3.3 µM.
